Laboratory results published in US11771729B2, “Maca extract and use thereof” (KAOHSIUNG MEDICAL UNIVERSITY, priority 2021, dated 2023).
Read-outs that look alike come from different tables or passages of the source. Marks after values point to notes of the source that are not given here.

Columns and labels:
[1] = tested on: human umbilical vein endothelial cells (HUVECs); assay: Pro-angiogenic test: HUVEC cell growth; format: cell-based; settings: VEGF 20 ng/mL, positive control, mean±SEM
Procedure: (§1) Endothelial cell culture: Isolation and culture of human CD34-positive endothelial progenitor cells (EPC) were performed using conventional methods (Chen et al., 2018); human umbilical vein endothelial cells (HUVECs) were purchased from Promo Cell (Heidelberg, Germany); and EPCs and HUVECs were maintained in MV2 medium according to a known protocol (Chung et al., 2013).
(§2) Measurement of cell growth: EPCs and HUVECs were cultured overnight at a density of 5×10^3 cells per well in a 96-well plate, and then, in the presence of the test specimen (that is, maca extract), the original medium was replaced with MV2 minimal medium and incubated for 48 hours. The measurements on EPC cell growth were as described in Yang et al., 2019.
(§3) The results are shown in Table 1 as below, in which corresponding results are indicated as mean±SEM (the test was repeated 3 times as a whole), wherein, compared to the control group (DSMO), * denotes p<0.05, ** denotes p<0.01, *** denotes p<0.001; and - denotes being untested.

[2] = tested on: human CD34-positive endothelial progenitor cells (EPC); assay: Pro-angiogenic test: EPC cell growth; format: cell-based; settings: mean±SEM
Procedure: as §1, §2, §3

[3] = tested on: RBL-2H3 cells; assay: Anti-allergy test: antigen-induced β-hexosaminidase release; format: cell-based; settings: for Antigen-induced β-hexosaminidase release Inhibition rate (%): Table 4, isolated compounds, concentration not given
Procedure: (§4) Equivalently divided supernatants (50 μL) of control wells and experimental wells were incubated with an equal volume (50 μL) of […] p-NAG prepared in 0.1 M citrate buffer (pH 4.5), in which the buffer is formed as a matrix of released β-hexosaminidase; the reaction, after 1 hour incubation at 37° C., was stopped by adding 100 μL of termination buffer (0.1M Na2/NaHCO3, pH 10.0), and then, the absorbance at a wavelength of 405 nm was measured with a microplate reader. The percentage of inhibiting RBL-2H3 cells from releasing β-hexosaminidase was calculated as the percentage of control (untreated stimulated cells), and azelastine (20 μM) was used as a positive control. The test results are shown in Tables 4 to 6 below, and the corresponding results are indicated as mean±SEM (the test was repeated 3 times), wherein * denotes p<0.05, ** denotes p<0.01, *** denotes p<0.001; - denotes being untested; and N/A denotes that the specimen forms mycelium added to the medium, and accordingly, the results cannot be proven.

[4] = tested on: RBL-2H3 cells; assay: Anti-allergy test: A23187-induced β-hexosaminidase release; format: cell-based; settings: for A23187-induced β-hexosaminidase release Inhibition rate (%): Table 4, isolated compounds, concentration not given (values equal 100 μM column of Table 6)
Procedure: as §4

[5] = tested on: RBL-2H3 cells; assay: Cell viability of RBL-2H3 cells (MTT); settings: for Viability of RBL-2H3 cells at 200 μg/ml: Table 6, isolated compounds, head prints 200 μg/ml
Procedure: (§6) Cells were cultured using DMEM medium supplemented with 10% FBS, and additional 100 U/mL penicillin and 100 μg/mL streptomycin. The cells were cultured in 10 cm Petri dishes in a 5% CO2 incubator at 37° C., the cells were secondary cultured in 80% confluent trypsin, and then seeded on culture plates at a density of 2×10^5 cells/mL for secretion measurement.
(§7) Measurement on cell viability: RBL-2H3 cells were seeded in a 96-well plate at a concentration of 2×10^4 cells/well overnight, specimens having different concentrations (that is, maca extract, dissolved in DMSO) or untreated controls (1% DMSO in Tyrode buffer; 135 mM NaCl, 5 mM KCl, 1.8 mM CaCl, 1.0 mM MgCl2, 5.6 mM glucose, 20 mM HEPES and 1 mg/ml BSA, pH 7.4) were used to treat the cells, the media was removed from the wells after incubation at 37° C., 5% CO2, and an MTT solution (5 mg/mL) stock solution was diluted 1:10 in the medium and then added to the wells (100 μL per well); Thereafter, the cells were incubated at 37° C., 5% CO2 for 1 hours, the medium was removed, the formed Formazan crystals (which can be formed only in normal healthy cells) were dissolved in 100 μL DMSO, and the absorbance at 574 nm wavelength was measured using a microplate reader in which the plates were gently shaked before the measurement. Cell viability values for the specimens were calculated and indicated as a percentage (%) of the control groups (untreated cells).

[6] = tested on: human neutrophil; assay: Anti-neutrophil inflammation test: superoxide anion generation; format: cell-based; settings: isolated compounds (10 μM) and positive controls 10 μM, fMLF/CB-activated neutrophils, mean±SEM
Procedure: (§5) Isolation of human neutrophil: According to the standard scheme of […] sedimentation, neutrophils was obtained from peripheral blood, and then, the neutrophils were purified by centrifugation and erythrocyte hypotonic degradation in a Ficoll-Hypaque gradient; and then, it was confirmed by the trypan blue exclusion test that the purified neutrophils contained more than 98% live cells, and the purified neutrophils were suspended in HBSS without calcium at 4° C. (Yang et al., 2013) prior to the test.
The level of superoxide anion generation by neutrophil activation was measured and determined based on the ferrocytochrome c reduction method according to Yang et al., 2013. In other words, human neutrophil cells (6×10^5 cells/mL) were mixed with 0.6 mg/mL of ferrocytochrome c and 1 mmol/L of CaCl at 37° C., and then the cells were treated with the test specimens having different concentrations (that is, maca extract) or DMSO (0.1% as control) for 5 minutes; thereafter, 10 minutes before activation with 100 nM of fMLF, the cells were incubated with cytochalasin B (1 μg/mL) for 3 minutes, changes in absorbance according to the decrease in ferrocytochrome c at a wavelength of […] with continuous stirring were continuously monitored using a spectrophotometer, and reactions were calculated with and without superoxide dismutase (SOD, 100 U/mL) with dividing by the extinction coefficient of the decreased ferrocytochrome c (21.1 mM^−1 cm^−1) reduction, thereby obtaining the difference value.

[7] = tested on: human neutrophil; assay: Anti-neutrophil inflammation test: elastase release; format: cell-based; settings: isolated compounds (10 μM) and positive controls 10 μM, fMLF/CB-activated neutrophils, mean±SEM
Procedure: as §5
The elastase release was used to measure degranulation of azurophilic granules in activated neutrophils (Yang et al., 2013); and the measurement was performed using methoxysuccinyl-Ala-Ala-Pro-Val-p-nitroaniline as an elastase matrix. At 37° C., neutrophils (6×10^5 cells/mL) were added to a mixture of matrix (100 μmol/L) and CaCl2 (1 mmol/L), and treated with the test specimens having different concentrations (that is, maca extract) or DMSO (0.1% as control) for 5 minutes, and then the cells were stimulated by using fMLF (100 nM)/CB (0.5 μg/mL), and changes in absorbance at the 405 nm wavelength were continuously monitored to measure the release of elastase, in which genistein and LY294002 were used as positive controls. The corresponding results are indicated as mean±SEM (the test was repeated 3 or 4 times), in which * denotes p<0.05, ** denotes p<0.01, *** denotes p<0.001; and - denotes being untested.

[8] = tested on: RBL-2H3 cells
Procedure: as §6, §7

[9] = 50 μM of each isolated compound, 48 hours

| Compound | Cell growth rate (%) HUVEC [1] | Cell growth rate (%) EPC ([2]; VEGF 20 ng/mL, positive control) | inhibition at 20 µM ([3]; RBL-2H3, azelastine 20 μM, positive control, read-out: Percentage of inhibiting antigen-induced β-hexosaminidase release (%)) | inhibition at 20 µM ([4]; RBL-2H3, azelastine 20 μM, positive control, read-out: Percentage of inhibiting A23187-induced β-hexosaminidase release (%)) | Viability of RBL-2H3 cells ([5]; azelastine 20 μM) | Cell growth rate (%) EPC [2, 9] | Percentage of inhibiting antigen-induced β-hexosaminidase release (%) 10 μM/mL [3] | Percentage of inhibiting antigen-induced β-hexosaminidase release (%) 100 μM/mL [3] | Percentage of inhibiting antigen-induced β-hexosaminidase release (%) 500 μM/mL [3] | Antigen-induced β-hexosaminidase release Inhibition rate (%) [3] | Inhibition rate (%) Superoxide anion generation [6] | Percentage of inhibiting A23187-induced β-hexosaminidase release (%) 10 μM/mL [4] | Percentage of inhibiting A23187-induced β-hexosaminidase release (%) 100 μM/mL [4] | Percentage of inhibiting A23187-induced β-hexosaminidase release (%) 500 μM/mL [4] | A23187-induced β-hexosaminidase release Inhibition rate (%) [4] | IC50 ([4]; Table 6, isolated compounds) | Inhibition rate (%) Elastase release [7] | Viability of RBL-2H3 cells at 200 μg/ml [5] | Viability of RBL-2H3 cells at 200 μg/ml [8] |
| --- | --- | --- | --- | --- | --- | --- | --- | --- | --- | --- | --- | --- | --- | --- | --- | --- | --- | --- | --- |
| VEGF | 122 ± 2*** % | 128 ± 2*** % |  |  |  |  |  |  |  |  |  |  |  |  |  |  |  |  |  |
| CN1CCCC(n2nc(Cc3ccc(Cl)cc3)c3ccccc3c2=O)CC1 (stereo not shown) [Azelastine, reference compound] |  |  | 54.3 ± 1.8% | 47.7 ± 3.2% | 88.0% |  |  |  |  |  |  |  |  |  |  |  |  |  |  |
| COCc1ccc(C=O)n1Cc1ccccc1 [Compound 5, 5-methoxymethyl-1-(benzyl)-2-aldehyde pyrrole] |  |  |  |  |  | 99 ± 5% | 9.0 ± 4.8% | 11.7 ± 5.9% | 8.3 ± 3.5% | 11.7 ± 5.9% | 21.59±5.35% | 21.3 ± 3.3%*** | 51.3 ± 4.6%*** | 57.7 ± 4.3%*** | 51.3 ± 4.6*** % | 96.1 µM | 3.33 ± 0.50** % | 94.0% |  |
| COc1cccc(Cn2c(C=O)ccc2CO)c1 [Compound 4, 5-hydroxymethyl-1-(m-methoxybenzyl)-2-aldehyde pyrrole] |  |  |  |  |  | 103 ± 1% | 16.7 ± 6.6%* | 10.0 ± 4.1% |  | 10.0 ± 4.1% | 1.05 ± 0.78% | 8.3 ± 1.0% | 6.7 ± 1.4% |  | 6.7 ± 1.4% |  | 0.00 ± 0.59% | 96.0% |  |
| O=Cc1cc[n+]([O-])cc1Cc1ccccc1 [Compound 7, 3-(benzyl)-1-(hydroxy)-4-aldehyde pyridine] |  |  |  |  |  | 105 ± 3% | 11.7 ± 2.6% | 8.0 ± 1.2% | 0.0 ± 0.0% | 8.0 ± 1.2% | 10.94 ± 1.84 % | 2.0 ± 1.6% | 6.0 ± 0.8% | 18.0 ± 3.4%*** | 6.0 ± 0.8% |  | 2.48 ± 3.05% |  | 94.7% |
| O=Cc1ccc(CO)n1Cc1ccccc1 [Compound 6, 5-hydroxymethyl-1-(benzyl)-2-aldehyde pyrrole] |  |  |  |  |  | 104 ± 4% | 10.3 ± 3.9% | 3.7 ± 3.0% | 0.3 ± 0.3% | 3.7 ± 3.0% | 5.44 ± 2.18% | 5.7 ± 1.0% | 9.7 ± 2.2% | 26.0 ± 2.4%*** | 9.7 ± 2.2% |  | 2.69 ± 0.49** % | 100.0% |  |
